Data as given in patent publication US7799796B2, “Diaminopyrimidines as P2X3 and P2X2/3 modulators” (Roche Palo Alto LLC, priority 2005, dated 2010).

Assays:
rat P2X3 receptor = target: T1, rat P2X3 receptor (Rattus norvegicus, UniProt P49654); test: P2X3 FLIPR (Fluorometric Imaging Plate Reader) assay; assay type: cell-based; conditions: CHO-K1 cells transfected with rat P2X3; agonist α,β-meATP 1 μM; read-out: pIC50 for the P2X3 receptor (converted)
T1 construct: expressed in transfected cells; host or cells: CHO-K1
T1 sequence (P49654 1-397): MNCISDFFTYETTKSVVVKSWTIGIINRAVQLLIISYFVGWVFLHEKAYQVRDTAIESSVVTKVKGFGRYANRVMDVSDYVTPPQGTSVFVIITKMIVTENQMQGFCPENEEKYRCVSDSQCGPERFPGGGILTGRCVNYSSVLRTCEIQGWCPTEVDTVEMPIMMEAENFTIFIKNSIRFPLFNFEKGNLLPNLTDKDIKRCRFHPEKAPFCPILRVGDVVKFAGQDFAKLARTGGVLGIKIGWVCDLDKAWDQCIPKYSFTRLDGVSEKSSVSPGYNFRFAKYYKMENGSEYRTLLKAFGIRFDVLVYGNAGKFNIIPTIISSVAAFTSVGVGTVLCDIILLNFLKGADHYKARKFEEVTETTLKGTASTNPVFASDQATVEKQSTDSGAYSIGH
Procedure: (§1) CHO-K1 cells were transfected with cloned rat P2X3 or human P2X2/3 receptor subunits and passaged in flasks. 18-24 hours before the FLIPR experiment, cells were released from their flasks, centrifuged, and resuspended in nutrient medium at 2.5×10^5 cells/ml. The cells were aliquoted into black-walled 96-well plates at a density of 50,000 cells/well and incubated overnight in 5% CO2 at 37° C. On the day of the experiment, cells were washed in FLIPR buffer (calcium- and magnesium-free Hank's balanced salt solution, 10 mM HEPES, 2 mM CaCl2, 2.5 mM probenecid; FB). Each well received 100 μl FB and 100 μl of the fluorescent dye Fluo-3 AM [2 μM final conc.]. […]
(§2) Test compounds (dissolved in DMSO at 10 mM and serially diluted with FB) or vehicle were added to each well (25 μl of a 4× solution) and allowed to equilibrate for 20 minutes at room temperature. The plates were then placed in the FLIPR and a baseline fluorescence measurement (excitation at 488 nm and emission at 510-570 nm) was obtained for 10 seconds before a 100 μl/well agonist or vehicle addition. […] Fluorescence was measured for an additional 2 minutes at 1 second intervals after agonist addition. A final addition of ionomycin (5 μM, final concentration) was made to each well of the FLIPR test plate to establish cell viability and maximum fluorescence of dye-bound cytosolic calcium. […]

human P2X2/3 receptor = target: T2, human P2X2/3 receptor (Homo sapiens, UniProt P56373+Q9UBL9); test: P2X2/3 FLIPR (Fluorometric Imaging Plate Reader) assay; assay type: cell-based; conditions: CHO-K1 cells transfected with human P2X2/3; agonist α,β-meATP 5 μM; read-out: pIC50 for the P2X2/3 receptor (converted)
T2 construct: expressed in transfected cells; host or cells: CHO-K1
T2 sequence (P56373 1-397): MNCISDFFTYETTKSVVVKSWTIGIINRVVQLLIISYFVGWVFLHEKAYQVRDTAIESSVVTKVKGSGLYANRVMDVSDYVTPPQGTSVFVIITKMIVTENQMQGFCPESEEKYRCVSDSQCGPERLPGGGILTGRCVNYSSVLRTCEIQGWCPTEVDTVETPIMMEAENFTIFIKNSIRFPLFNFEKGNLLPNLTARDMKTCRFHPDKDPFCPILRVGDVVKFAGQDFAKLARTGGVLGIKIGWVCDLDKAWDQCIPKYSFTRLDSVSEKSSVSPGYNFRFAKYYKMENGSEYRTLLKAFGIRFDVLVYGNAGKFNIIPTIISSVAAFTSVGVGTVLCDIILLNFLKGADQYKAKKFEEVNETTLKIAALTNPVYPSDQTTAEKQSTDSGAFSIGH
T2 sequence (Q9UBL9 1-471): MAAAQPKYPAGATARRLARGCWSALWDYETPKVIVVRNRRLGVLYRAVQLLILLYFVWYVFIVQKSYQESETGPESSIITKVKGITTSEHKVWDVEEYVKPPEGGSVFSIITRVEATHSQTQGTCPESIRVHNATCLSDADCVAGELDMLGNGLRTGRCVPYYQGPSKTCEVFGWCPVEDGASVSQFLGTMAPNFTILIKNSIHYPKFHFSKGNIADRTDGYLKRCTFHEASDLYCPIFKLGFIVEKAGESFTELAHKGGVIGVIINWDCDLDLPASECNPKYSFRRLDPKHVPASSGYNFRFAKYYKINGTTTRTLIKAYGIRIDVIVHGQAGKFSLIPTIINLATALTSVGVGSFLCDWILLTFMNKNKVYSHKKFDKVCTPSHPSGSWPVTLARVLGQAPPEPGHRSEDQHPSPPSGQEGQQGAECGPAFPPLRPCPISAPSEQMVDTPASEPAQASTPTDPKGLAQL
Procedure: as §1, §2

COc1cc(C(C)C)c(Oc2cnc(NC(=O)C(C)C)nc2N)cc1I [Compound 10, N-[4-Amino-5-(5-iodo-2-isopropyl-4-methoxy-phenoxy)-pyrimidin-2-yl]-isobutyramide]
IC50 (rat P2X3 receptor): ~15.8 nM | IC50 (human P2X2/3 receptor): ~39.8 nM
